Source: PMC11995724, “Antibiotic target discovery by integrated phenotypic and activity-based profiling of electrophilic fragments” (Cell chemical biology, 2025)

test: in vitro; conditions: human, hek293t cells

| SMILES | viability at 48 h, 25 µM [%] |
| --- | --- |
| C=CC(=O)N1CCOC(c2ccc(F)c(C)c2)C1 (centres unmarked) [3-A09, 1-[2-(4-fluoro-3-methylphenyl)morpholin-4-yl]prop-2-en-1-one] | 38.4 |
| C=CC(=O)NC1CCS(=O)(=O)C(C)C1 (centres unmarked) [3-A10, N-(2-methyl-1,1-dioxo-1lambda6-thian-4-yl)prop-2-enamide] | 68.8 |
| C=CC(=O)N1CCC(Cc2nc(CC)no2)CC1 [3-A11, 1-{4-[(3-ethyl-1,2,4-oxadiazol-5-yl)methyl]piperidin-1-yl}prop-2-en-1-one] | 60.7 |
| C=CC(=O)N(C)CC(=O)NC1CCCN(c2cc(C)nc(C)n2)C1 (centres unmarked) [3-A12, N-({[1-(2,6-dimethylpyrimidin-4-yl)piperidin-3-yl]carbamoyl}methyl)-N-methylprop-2-enamide] | 74.4 |
| C=CC(=O)N1CCCC(c2nc(N(C)C)no2)C1 (centres unmarked) [3-A13, 1-{3-[3-(dimethylamino)-1,2,4-oxadiazol-5-yl]piperidin-1-yl}prop-2-en-1-one] | 29.9 |
| C=CC(=O)N(CC)CC(=O)N1CCc2[nH]nc(C(F)(F)F)c2C1 [3-A14, N-ethyl-N-{2-oxo-2-[3-(trifluoromethyl)-1H,4H,5H,6H,7H-pyrazolo[4,3-c]pyridin-5-yl]ethyl}prop-2-enamide] | 64.2 |
| C=CC(=O)NC(C)c1nnnn1C (centres unmarked) [3-A15, N-[1-(1-methyl-1H-1,2,3,4-tetrazol-5-yl)ethyl]prop-2-enamide] | 23.9 |
| C=CC(=O)N1CCC(C(=O)NCC2COC3(CCCC3)O2)CC1 (centres unmarked) [3-A16, N-({1,4-dioxaspiro[4.4]nonan-2-yl}methyl)-1-(prop-2-enoyl)piperidine-4-carboxamide] | 73.4 |
| C=CC(=O)N1CCOC(c2nc(C)cs2)C1 (centres unmarked) [3-A17, 1-[2-(4-methyl-1,3-thiazol-2-yl)morpholin-4-yl]prop-2-en-1-one] | 26.2 |
| C=CC(=O)N1CCOC(CNC(=O)NC)C1 (centres unmarked) [3-A18, 3-methyl-1-{[4-(prop-2-enoyl)morpholin-2-yl]methyl}urea] | 93.3 |
| C=CC(=O)N1CCN(S(=O)(=O)c2ccc(C(C)(C)C)cc2)CC1 [3-A19, 1-[4-(4-tert-butylbenzenesulfonyl)piperazin-1-yl]prop-2-en-1-one] | 24.5 |
| C=CC(=O)NC(C)c1ccc(S(=O)(=O)N(C)C)cc1 (centres unmarked) [3-A20, N-{1-[4-(dimethylsulfamoyl)phenyl]ethyl}prop-2-enamide] | 51.5 |
| C=CC(=O)N1CCCN(C(=O)c2ccc(OC)cc2)CC1 [3-A21, 1-[4-(4-methoxybenzoyl)-1,4-diazepan-1-yl]prop-2-en-1-one] | 53.5 |
| C=CC(=O)N(C)C[C@@H]1CCC(=O)N1 [3-A22, N-methyl-N-{[(2S)-5-oxopyrrolidin-2-yl]methyl}prop-2-enamide] | 150 |
| C=CC(=O)N1CCC(C(=O)NCc2nccn2-c2ccccc2)CC1 [3-B03, N-[(1-phenyl-1H-imidazol-2-yl)methyl]-1-(prop-2-enoyl)piperidine-4-carboxamide] | 86.5 |
| C=CC(=O)N1CC(n2nc(C)cc2C)C1 [3-B04, 1-[3-(3,5-dimethyl-1H-pyrazol-1-yl)azetidin-1-yl]prop-2-en-1-one] | 77.4 |
| C=CC(=O)NCc1ccc(C(=O)N2CCOC3(CCCC3)C2)cc1 [3-B05, N-[(4-{6-oxa-9-azaspiro[4.5]decane-9-carbonyl}phenyl)methyl]prop-2-enamide] | 69.9 |
| C=CC(=O)Nc1ccc(OC)c(COC)c1 [3-B06, N-[4-methoxy-3-(methoxymethyl)phenyl]prop-2-enamide] | 89.7 |
| C=CC(=O)N1CCC(C(=O)Nc2ccn(Cc3ccccn3)n2)CC1 [3-B07, 1-(prop-2-enoyl)-N-{1-[(pyridin-2-yl)methyl]-1H-pyrazol-3-yl}piperidine-4-carboxamide] | 53.3 |
| C=CC(=O)Nc1ccc(C(=O)NC2CC(C)(C)OC2=O)cc1 (centres unmarked) [3-B08, N-(5,5-dimethyl-2-oxooxolan-3-yl)-4-(prop-2-enamido)benzamide] | 82.4 |
| C=CC(=O)NC1(C(N)=O)CCCC1C (centres unmarked) [3-B09, 2-methyl-1-(prop-2-enamido)cyclopentane-1-carboxamide] | 54.5 |
| C=CC(=O)Nc1cn(CCC)cn1 [3-B10, N-(1-propyl-1H-imidazol-4-yl)prop-2-enamide] | 91.1 |
| C=CC(=O)N[C@H](C)c1cnnn1C [3-B11, N-[(1R)-1-(1-methyl-1H-1,2,3-triazol-5-yl)ethyl]prop-2-enamide] | 73.8 |
| C=CC(=O)N1CCC(C(=O)NCc2nc(C)c(C)s2)CC1 [3-B12, N-[(4,5-dimethyl-1,3-thiazol-2-yl)methyl]-1-(prop-2-enoyl)piperidine-4-carboxamide] | 87.5 |
| C=CC(=O)NC(C)c1ccc(-n2ccnn2)cc1 (centres unmarked) [3-B13, N-{1-[4-(1H-1,2,3-triazol-1-yl)phenyl]ethyl}prop-2-enamide] | 59.2 |

| SMILES | viability at 48 h, 25 µM [%] |
| --- | --- |
| C=CC(=O)N1CCC(C(=O)N[C@@H]2C[C@H]2c2ccc(Cl)c(F)c2)CC1 [3-B14, N-[(1R,2S)-2-(4-chloro-3-fluorophenyl)cyclopropyl]-1-(prop-2-enoyl)piperidine-4-carboxamide] | 78.3 |
| C=CC(=O)Nc1ccc(C(=O)N2CCC(C(C)C)CC2)cc1 [3-B15, N-{4-[4-(propan-2-yl)piperidine-1-carbonyl]phenyl}prop-2-enamide] | 27.5 |
| C=CC(=O)N1CCn2c(cnc2C(F)(F)F)C1 [3-B16, 1-[3-(trifluoromethyl)-5H,6H,7H,8H-imidazo[1,5-a]pyrazin-7-yl]prop-2-en-1-one] | 81.8 |
| C=CC(=O)NCC1CCN(c2ccccc2)C1 (centres unmarked) [3-B17, N-[(1-phenylpyrrolidin-3-yl)methyl]prop-2-enamide] | 66.8 |
| C=CC(=O)NCc1ccnc(-n2cncn2)c1 [3-B18, N-{[2-(1H-1,2,4-triazol-1-yl)pyridin-4-yl]methyl}prop-2-enamide] | 92.7 |
| C=CC(=O)NCc1cc(C(F)(F)C(F)(F)F)on1 [3-B19, N-{[5-(1,1,2,2,2-pentafluoroethyl)-1,2-oxazol-3-yl]methyl}prop-2-enamide] | 48.4 |
| C=CC(=O)NCc1noc2c1CCCC2 [3-B20, N-[(4,5,6,7-tetrahydro-1,2-benzoxazol-3-yl)methyl]prop-2-enamide] | 74.4 |
| C=CC(=O)NCCNC(=O)c1cc2ccccc2[nH]1 [3-B21, N-{2-[(1H-indol-2-yl)formamido]ethyl}prop-2-enamide] | 63.1 |
| C=CC(=O)N1CCc2nn(C(C)C)c(=O)cc2C1 [3-B22, 6-(prop-2-enoyl)-2-(propan-2-yl)-2H,3H,5H,6H,7H,8H-pyrido[4,3-c]pyridazin-3-one] | 87.7 |
| C=CC(=O)N1CCC(n2cnc3ccccc3c2=O)C1 (centres unmarked) [3-C03, 3-[1-(prop-2-enoyl)pyrrolidin-3-yl]-3,4-dihydroquinazolin-4-one] | 63.6 |
| C=CC(=O)N(C)CC(=O)N1CCc2cc(OC)c(OC)cc2C1C (centres unmarked) [3-C04, N-[2-(6,7-dimethoxy-1-methyl-1,2,3,4-tetrahydroisoquinolin-2-yl)-2-oxoethyl]-N-methylprop-2-enamide] | 84.6 |
| C=CC(=O)NCc1nc(-c2ccccc2)oc1C [3-C05, N-[(5-methyl-2-phenyl-1,3-oxazol-4-yl)methyl]prop-2-enamide] | 50.4 |
| C=CC(=O)N1CCC(C(=O)Nc2ccccc2NS(C)(=O)=O)CC1 [3-C06, N-(2-methanesulfonamidophenyl)-1-(prop-2-enoyl)piperidine-4-carboxamide] | 82.7 |
| C=CC(=O)N1CCC(C(=O)NC2CC2(C)C)CC1 (centres unmarked) [3-C07, N-(2,2-dimethylcyclopropyl)-1-(prop-2-enoyl)piperidine-4-carboxamide] | 30.9 |
| C=CC(=O)N1CCn2c(nnc2C2CCCC2)C1 [3-C09, 1-{3-cyclopentyl-5H,6H,7H,8H-[1,2,4]triazolo[4,3-a]pyrazin-7-yl}prop-2-en-1-one] | 29.4 |
| C=CC(=O)Nc1ccc(C(=O)NC2CCN(C(C)C)C2=O)cc1 (centres unmarked) [3-C10, N-[2-oxo-1-(propan-2-yl)pyrrolidin-3-yl]-4-(prop-2-enamido)benzamide] | 60.6 |
| C=CC(=O)NC(C)Cn1cncn1 (centres unmarked) [3-C11, N-[1-(1H-1,2,4-triazol-1-yl)propan-2-yl]prop-2-enamide] | 37.9 |
| C=CC(=O)NCCC1CCCS1(=O)=O (centres unmarked) [3-C12, N-[2-(1,1-dioxo-1lambda6-thiolan-2-yl)ethyl]prop-2-enamide] | 86.1 |
| C=CC(=O)N1CCOC(Cn2nc(C)cc2C)C1 (centres unmarked) [3-C13, 1-{2-[(3,5-dimethyl-1H-pyrazol-1-yl)methyl]morpholin-4-yl}prop-2-en-1-one] | 40.5 |
| C=CC(=O)N[C@H]1C[C@H](C)S(=O)(=O)c2sccc21 [3-C14, N-[(2S,4S)-2-methyl-1,1-dioxo-2H,3H,4H-1lambda6-thieno[2,3-b]thiopyran-4-yl]prop-2-enamide] | 84.1 |
| C=CC(=O)N1CCC(C(=O)NCc2nnc(C(C)C)n2C)CC1 [3-C16, N-{[4-methyl-5-(propan-2-yl)-4H-1,2,4-triazol-3-yl]methyl}-1-(prop-2-enoyl)piperidine-4-carboxamide] | 78.5 |
| C=CC(=O)N1CCC(C(=O)N2CCC(C(=O)NCC(C)C)CC2)CC1 [3-C17, N-(2-methylpropyl)-1-[1-(prop-2-enoyl)piperidine-4-carbonyl]piperidine-4-carboxamide] | 34.6 |
| C=CC(=O)N1CCC(C(=O)NCCO)CC1 [3-C18, N-(2-hydroxyethyl)-1-(prop-2-enoyl)piperidine-4-carboxamide] | 72.9 |
| C=CC(=O)N1CCC(C(=O)N2Cc3ccccc3C[C@H]2C(N)=O)CC1 [3-C19, (3S)-2-[1-(prop-2-enoyl)piperidine-4-carbonyl]-1,2,3,4-tetrahydroisoquinoline-3-carboxamide] | 29.6 |
| C=CC(=O)N(C)CC(=O)N1CCCC(CC(N)=O)CC1 (centres unmarked) [3-C20, N-{2-[4-(carbamoylmethyl)azepan-1-yl]-2-oxoethyl}-N-methylprop-2-enamide] | 68.6 |
